# Measurements from patent US8029793B2, “Methods for inhibiting cell proliferation” (Chugai Seiyaku Kabushiki Kaisha, priority 2000, dated 2011).
# Tests used:
# KTA-2 cell line = assay: PTHrP stimulation test (3H-TdR incorporation); assay type: cell-based, human; conditions: PTHrP(34-53) 0, 1, 10, 100 ng/mL, trypsin treatment at 24 hours and at 48 hours after addition
# Protocol: (§1) Briefly, anaplastic thyroid cell lines TTA-1 (hatched bars), TTA-2 (solid bars), and KTA-2 (unfilled bars) were seeded at 1×10^4 cells per well in a 96-well plate. Cells were incubated for two days in complete medium and then shifted to serum-free medium for day 3. Cells were treated with PTHrP (34-53) at 0, 1, 10, and 100 ng/mL and treated with trypsin 24 (top panel) and 48 (bottom panel) hours later. Cells were labeled with ^3H-TdR for 6 hours (0.25 μCi/well) and incorporation of label was measured by liquid scintillation counting. Measurements were performed in triplicate and average results are presented.
# (§2) After treating TTA-1, TTA-2, and KTA-2 with trypsin, the number of viable cells not stained with trypan blue was counted with a hemocytometer. Subsequently, 1×10^4 cells were inoculated on a 96-well multi-plate (Falcon), and then cultured in a CO2 incubator at 37° C. for 2 days. On day 2 after culturing, the culture solution was replaced by a serum-free medium, and then culturing was performed for 1 day. PTHrP(34-53) (Calbiochem) at concentrations of 0 (PTHrP-free), 1, 10 and 100 ng/mL were added, followed by treatment with trypsin 24 and 48 hours later.
# (§3) The cells were labeled with ^3H-TdR for 6 hours (0.25 μCi/well), collected, and then incorporation of ^3H-TdR was measured using a liquid scintillation counter. […]
# TTA-1 cell line = assay: PTHrP stimulation test (3H-TdR incorporation); assay type: cell-based, human; conditions: PTHrP(34-53) 0, 1, 10, 100 ng/mL, trypsin treatment at 24 hours and at 48 hours after addition
# Protocol: as §1, §2, §3
substance,measurement,setting,value
PTHrP(34-53): peptide fragment consisting the sequence of amino acids 34 to 53 of parathyroid hormone related peptide (Calbiochem) (AEIRATSEVSPNSKPSPNTK; listed as Homo sapiens),cell proliferation (incorporation of 3H-TdR),KTA-2 cell line,proliferate depending on the concentration of PTHrP
same,cell proliferation (incorporation of 3H-TdR),TTA-1 cell line,proliferate depending on the concentration of PTHrP
